We go through nine compounds from ChEMBL document CHEMBL3271999, “Antimycotic imidazoles. 2. Synthesis and antimycotic properties of 1-[2-(arylalkyl)-2-phenylethyl]-1H-imidazoles” (1977).

Format in all cases: functional
The test system of test [1] is Sporothrix schenckii. In words: Antifungal activity against Sporothrix schenckii assessed as lowest dose level for total inhibition of fungal growth.
Test [2] relates to Microsporum canis. In words: Antifungal activity against Microsporum canis assessed as lowest dose level for total inhibition of fungal growth.
Test [3] relates to Streptococcus pyogenes. In words: Antibacterial activity against Streptococcus pyogenes assessed as lowest dose level for total inhibition of bacterial growth.
Test [4] deals with Phialophora verrucosa. In words: Antifungal activity against Phialophora verrucosa assessed as lowest dose level for total inhibition of fungal growth.
The test system of test [5] is Candida albicans. The test is described as follows: Antifungal activity against Candida albicans assessed as lowest dose level for total inhibition of fungal growth.
For test [6], the system named is Mucor. The test is described as follows: Antifungal activity against Mucor species assessed as lowest dose level for total inhibition of fungal growth.
In test [7] the test system is Trichophyton mentagrophytes. The test is described as follows: Antifungal activity against Trichophyton mentagrophytes assessed as lowest dose level for total inhibition of fungal growth.
Test [8] has as its system Staphylococcus haemolyticus. The test is described as follows: Antibacterial activity against Staphylococcus haemolyticus assessed as lowest dose level for total inhibition of bacterial growth.
Test [9] has as its system Erysipelothrix rhusiopathiae. In words: Antibacterial activity against Erysipelothrix insidiosa assessed as lowest dose level for total inhibition of bacterial growth.
Test [10] concerns Aspergillus fumigatus. The test is described as follows: Antifungal activity against Aspergillus fumigatus assessed as lowest dose level for total inhibition of fungal growth.
The subject of test [11] is Cryptococcus neoformans. The test is described as follows: Antifungal activity against Cryptococcus neoformans assessed as lowest dose level for total inhibition of fungal growth.
Test [12] deals with Trichophyton rubrum. In words: Antifungal activity against Trichophyton rubrum assessed as lowest dose level for total inhibition of fungal growth.
The subject of test [13] is Saprolegnia. In words: Antifungal activity against Saprolegnia species assessed as lowest dose level for total inhibition of fungal growth.
The test system of test [14] is Candida tropicalis. In words: Antifungal activity against Candida tropicalis assessed as lowest dose level for total inhibition of fungal growth.

The structures appear in SMILES notation.

As to `Clc1ccc(C(CCc2ccc(Br)cc2)Cn2ccnc2)c(Cl)c1.O=[N+]([O-])O` (stereo unspecified), the Activity in test [1] is 10 µg/mL; in test [2], 10 µg/mL; in [3], under 1 µg/mL; in [4], 100 µg/mL; in [5], over 100 µg/mL; in test [6], over 100 µg/mL. In addition, the Activity in test [7] was under 1 µg/mL; in [8], 10 µg/mL; in [9], under 1 µg/mL; in test [10], 100 µg/mL; in test [11] it was under 1 µg/mL; in test [12] it was under 1 µg/mL. Moreover, the Activity in [13] and in [14] was 10 µg/mL each time.

In the case of `Clc1ccc(C(Cc2ccc(Cl)cc2Cl)Cn2ccnc2)cc1.O=[N+]([O-])O` (stereo unspecified), the Activity came to 10 µg/mL in [1]; 10 µg/mL in [2]; 1 µg/mL in test [3]; 100 µg/mL in test [4]; 100 µg/mL in test [5]; 100 µg/mL in [6]. The Activity in test [7] was under 1 µg/mL; in test [8], 10 µg/mL; in [9] it was under 1 µg/mL; in test [10] it was 100 µg/mL; in test [11], under 1 µg/mL; in [12], under 1 µg/mL. Moreover, the Activity in test [13] and in test [14] was 100 µg/mL each time.

Take `Clc1ccc(COC(Cn2ccnc2)c2ccc(Cl)cc2Cl)c(Cl)c1` (stereo unspecified) [MICONAZOLE]: the Activity in [1] is 1 µg/mL; in [2], 1 µg/mL; in test [3], under 1 µg/mL; in test [4], 100 µg/mL; in test [5] it was 10 µg/mL; in test [6], over 100 µg/mL. Also, the Activity in test [7] was under 1 µg/mL; in test [8], 10 µg/mL; in [9] it was under 1 µg/mL; in test [10], 10 µg/mL; in test [11], 1 µg/mL; in [12] it was under 1 µg/mL. In addition, the values for the Activity in test [13] and in test [14] were 10 µg/mL and 100 µg/mL, respectively.

Take `Cc1ccccc1C(Cc1ccc(Cl)cc1)Cn1ccnc1.O=[N+]([O-])O` (stereo unspecified): the Activity was 100 µg/mL in [1]; 10 µg/mL in [2]; under 1 µg/mL in [3]; 100 µg/mL in test [4]; over 100 µg/mL in [5]; 100 µg/mL in test [6]. In addition, the Activity in test [7] is under 1 µg/mL; in test [8], 10 µg/mL; in test [9], 1 µg/mL; in test [10], 100 µg/mL; in test [11] it was 10 µg/mL; in [12] it was 10 µg/mL. The Activity in test [13] was 100 µg/mL; in [14] it was over 100 µg/mL.

Take `Clc1ccccc1C(Cc1c(Cl)cccc1Cl)Cn1ccnc1.O=[N+]([O-])O` (stereo unspecified): the Activity is 10 µg/mL in test [1]; under 1 µg/mL in test [2]; under 1 µg/mL in test [3]; 100 µg/mL in test [4]; 100 µg/mL in [5]; over 100 µg/mL in [6]. The Activity in test [7] was under 1 µg/mL; in [8], 1 µg/mL; in test [9], 1 µg/mL; in [10], 10 µg/mL; in [11], 10 µg/mL; in [12] it was under 1 µg/mL. Moreover, the values for the Activity in [13] and in [14] were 100 µg/mL and over 100 µg/mL, respectively.

Regarding `Clc1ccc(C(Cc2c(Cl)cccc2Cl)Cn2ccnc2)cc1.O=[N+]([O-])O` (stereo unspecified), the Activity was 10 µg/mL in test [1]; 10 µg/mL in test [2]; under 1 µg/mL in test [3]; 100 µg/mL in test [4]; over 100 µg/mL in test [5]; 10 µg/mL in [6]. The Activity in test [7] is under 1 µg/mL; in test [8], 10 µg/mL; in test [9], under 1 µg/mL; in [10], 100 µg/mL; in [11] it was under 1 µg/mL; in test [12], 10 µg/mL. The Activity in [13] was 100 µg/mL; in test [14] it was over 100 µg/mL.

Take `Clc1ccc(C(CCc2ccccc2Cl)Cn2ccnc2)c(Cl)c1.O=[N+]([O-])O` (stereo unspecified): the Activity in test [1] was under 1 µg/mL; in test [2], 10 µg/mL; in test [3], 1 µg/mL; in test [4], 100 µg/mL; in test [5], 10 µg/mL; in test [6] it was 100 µg/mL. In addition, the Activity in test [7] was under 1 µg/mL; in test [8], 1 µg/mL; in test [9] it was under 1 µg/mL; in [10] it was 100 µg/mL; in test [11], under 1 µg/mL; in test [12] it was under 1 µg/mL. In addition, the Activity in test [13] is 100 µg/mL; in test [14] it was over 100 µg/mL.

`Clc1ccc(C(Cc2c(Cl)cccc2Cl)Cn2ccnc2)c(Cl)c1.O=[N+]([O-])O` (stereo unspecified): the Activity in [1] was under 1 µg/mL; in test [2], 10 µg/mL; in test [3], 1 µg/mL; in test [4], 100 µg/mL; in [5] it was 100 µg/mL; in test [6], 100 µg/mL. For the same compound, the Activity is under 1 µg/mL in [7]; 100 µg/mL in test [8]; 1 µg/mL in test [9]; 100 µg/mL in [10]; under 1 µg/mL in [11]; under 1 µg/mL in test [12]. The Activity in test [13] and in test [14] was 100 µg/mL throughout.

For `Cc1ccccc1C(Cc1c(Cl)cccc1Cl)Cn1ccnc1.O=[N+]([O-])O` (stereo unspecified), the Activity in test [1] was 100 µg/mL; in test [2], 10 µg/mL; in test [3], under 1 µg/mL; in test [4], 100 µg/mL; in test [5], over 100 µg/mL; in [6] it was 100 µg/mL. In addition, the Activity in test [7] was under 1 µg/mL; in [8], 10 µg/mL; in test [9] it was under 1 µg/mL; in [10], 100 µg/mL; in test [11] it was 100 µg/mL; in [12], under 1 µg/mL. Besides, the Activity was 100 µg/mL in test [13] and over 100 µg/mL in [14].
